Assay results as given in patent US7736677B2 (Metaproteomics, LLC, priority 2001, dated 2010).
Marks after values point to notes of the source that are not given here.

Tests used:
[1] = test system: adiponectin; experiment: Adiponectin secretion in LPS/3T3-L1 adipocytes; assay type: cell-based, murine; details: for induction of adiponectin secretion: any of the doses tested; for Concentration of maximum stimulation of adiponectin secretion: LPS-treated D5 3T3-L1 adipocytes
[2] = test system: IL-6; experiment: IL-6 secretion from TNFα-treated 3T3-L1 adipocytes; assay type: cell-based, murine; details: 10 ng TNFα/ml
[3] = test system: adiponectin; experiment: Adiponectin secretion from TNFα-treated 3T3-L1 adipocytes; assay type: cell-based, murine
Experimental: For two days, the cells were allowed grow to reach confluence. […] Adiponectin Assay—The adiponectin secreted into the medium was quantified using the Mouse Adiponectin Quantikine® Immunoassay kit with no modifications (R&D Systems, Minneapolis, Minn.). […] Statistical Calculations and Interpretation—All assays were preformed in duplicate. […] Differences among the doses and test agents were determined using the Student's t-test without correction for multiple comparisons; the nominal five percent probability of a type I error was selected.

[4] = test system: IL-6; experiment: IL-6 secretion in LPS/3T3-L1 adipocytes; assay type: cell-based, murine; details: at the dose providing maximum inhibition; for IL-6 Index: indexed to LPS control
[5] = test system: DBA/J mice; experiment: Collagen induced rheumatoid arthritis murine model; assay type: in vivo, mouse
[6] = test system: db/db mice; assay type: in vivo, mouse; details: three consecutive days
[7] = test system: adiponectin; experiment: Adiponectin secretion from insulin-resistant 3T3-L1 adipocytes; assay type: cell-based, murine
[8] = molecular target: PKBγ (Homo sapiens, UniProt Q9Y243); experiment: KinaseProfiler Assay; assay type: biochemical; details: 5 ug/ml, read-out: effect (as % of Control)
[9] = molecular target: PKCβII (Homo sapiens, UniProt P05771); experiment: KinaseProfiler Assay; assay type: biochemical; details: 5 ug/ml, read-out: effect (as % of Control)
[10] = test system: IL-6; experiment: IL-6 secretion from insulin-resistant 3T3-L1 adipocytes; assay type: cell-based, murine; details: high insulin
[11] = at the concentration of maximum stimulation

Sequence of PKBγ (Q9Y243 whole entry): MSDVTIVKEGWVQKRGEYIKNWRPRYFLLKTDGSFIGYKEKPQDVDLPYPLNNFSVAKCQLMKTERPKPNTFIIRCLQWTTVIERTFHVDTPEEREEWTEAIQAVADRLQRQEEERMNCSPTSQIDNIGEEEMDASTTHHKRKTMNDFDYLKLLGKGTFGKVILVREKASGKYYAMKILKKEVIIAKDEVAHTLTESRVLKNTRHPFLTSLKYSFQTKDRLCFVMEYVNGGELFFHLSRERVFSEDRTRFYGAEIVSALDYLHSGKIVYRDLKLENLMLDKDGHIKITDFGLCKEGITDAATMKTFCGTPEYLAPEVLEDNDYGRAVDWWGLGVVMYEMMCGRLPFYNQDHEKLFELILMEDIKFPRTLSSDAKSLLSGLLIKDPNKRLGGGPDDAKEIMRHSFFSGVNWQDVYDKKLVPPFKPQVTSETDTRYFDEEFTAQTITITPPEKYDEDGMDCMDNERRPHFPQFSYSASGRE
Sequence of PKCβII (P05771 1-673 isoform P05771-2): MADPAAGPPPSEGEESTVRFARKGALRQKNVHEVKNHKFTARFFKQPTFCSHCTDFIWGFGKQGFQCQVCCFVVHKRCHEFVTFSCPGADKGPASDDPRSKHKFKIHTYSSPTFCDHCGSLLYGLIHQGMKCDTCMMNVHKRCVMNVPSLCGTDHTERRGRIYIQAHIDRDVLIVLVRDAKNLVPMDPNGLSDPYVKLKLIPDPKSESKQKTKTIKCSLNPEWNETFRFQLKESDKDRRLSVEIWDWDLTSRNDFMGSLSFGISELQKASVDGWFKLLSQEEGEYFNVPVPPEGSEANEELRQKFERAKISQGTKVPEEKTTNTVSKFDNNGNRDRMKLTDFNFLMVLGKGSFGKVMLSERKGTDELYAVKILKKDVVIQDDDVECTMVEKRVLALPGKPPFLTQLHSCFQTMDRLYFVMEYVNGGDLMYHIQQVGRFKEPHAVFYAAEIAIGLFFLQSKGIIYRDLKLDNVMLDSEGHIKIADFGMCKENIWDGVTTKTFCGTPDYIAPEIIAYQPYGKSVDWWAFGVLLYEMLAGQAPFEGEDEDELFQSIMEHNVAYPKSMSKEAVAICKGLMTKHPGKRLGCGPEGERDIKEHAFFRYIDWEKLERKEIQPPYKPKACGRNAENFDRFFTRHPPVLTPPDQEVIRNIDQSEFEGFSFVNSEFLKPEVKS

CC(=O)Oc1ccccc1C(=O)O [Aspirin, aspirin]
induction of adiponectin secretion [1]: failed to induce adiponectin secretion

COc1ccc2c(c1)c(CC(=O)O)c(C)n2C(=O)c1ccc(Cl)cc1 [Indomethacin, indomethacin]
IL-6 secretion in the presence of TNFα [2]: no anti-inflammatory effect | % Stimulation of adiponectin secretion (maximum) [1, 11]: 9%

CC(C)Cc1ccc(C(C)C(=O)O)cc1 (centres unmarked) [ibuprofen]
% Stimulation of adiponectin secretion (maximum) [1, 11]: 22%

CCc1ccc(CCOc2ccc(CC3SC(=O)NC3=O)cc2)nc1 (centres unmarked) [Pioglitazone, pioglitazone]
Concentration of maximum adiponectin secretion over four doses ([3]; 10 ng TNFα/ml, Example 17): 1.25 µg/mL | Adiponectin Index, Observed ([3]; 1.0 μg/ml, indexed to TNFα control (Table 26)): 1.80 | IL-6 Index [4]: 0.37* | Concentration of maximum stimulation of adiponectin secretion [1]: 1.25 µg/mL | % Stimulation of adiponectin secretion (maximum) [1, 11]: 12%

C[C@]12C=CC(=O)C=C1CC[C@@H]1[C@@H]2[C@@H](O)C[C@@]2(C)[C@H]1CC[C@]2(O)C(=O)CO [prednisolone]
arthritic index ([5]; 10 mg/kg, days 30-42): Significant reductions | serum IL-6 levels ([5]; mouse, in vivo): reached a statistical significance

CN(C)C(=N)N=C(N)N [metformin]
serum glucose relative to the controls [6]: decreased

CC(C)CCC1=C(O)C(C(=O)C(C)C)=C(O)C(CCC(C)C)(CCC(C)C)C1=O [Hexahydro colupulone, hexahydrocolupulone]
Test Material at Half Maximal Secretion ([7]; slope of Hofstee plots): 3.2 µg/mL

COc1cc(O)c(CC=C(C)C)c(O)c1C(=O)/C=C/c1ccc(O)cc1 [Xanthohumol, xanthohumol]
remaining activity at 5 µg/mL [8]: 104% | remaining activity at 5 µg/mL [9]: 108% | IL-6 secretion [10]: Significant decreases in IL-6 secretion

O=C(O)c1ccccc1O [salicylic acid]
% Inhibition of IL-6 secretion (maximum) [4]: 48* % | IL-6 Index [4]: 0.52* | induction of adiponectin secretion [1]: failed to induce adiponectin secretion | Adiponectin Index ([1]; at the concentration of maximum stimulation, indexed to LPS control): 0.96

Cc1c(C)c2c(c(C)c1O)CCC(C)(COc1ccc(CC3SC(=O)NC3=O)cc1)O2 (centres unmarked) [Troglitazone, troglitazone]
Adiponectin/IL-6 ([7]; 5.0 μg/ml, ratio of adiponectin index to IL-6 index (Table 21)): 1.12 | Concentration of maximum stimulation of adiponectin secretion [1]: 0.625 µg/mL | % Stimulation of adiponectin secretion (maximum) [1, 11]: 15%
